Measured values reported in ChEMBL document CHEMBL1129196, “Studies on the structural feature of S'1 subsite of neprilysin (EC.3.4.24.11): Stereochemical requirement for the enzyme-inhibitor docking process” (Bioorg Med Chem Lett, 1996).

Assays:
[1] = molecular target: Neprilysin (Homo sapiens, UniProt P08473); experiment: Compound was evaluated for inhibition of recombinant human neprilysin(NEP).
[2] = molecular target: T1, Angiotensin-converting enzyme (Rattus norvegicus, UniProt P47820); experiment: Compound was measured for the inhibition of Angiotensin I converting enzyme
T1 sequence (P47820 whole entry): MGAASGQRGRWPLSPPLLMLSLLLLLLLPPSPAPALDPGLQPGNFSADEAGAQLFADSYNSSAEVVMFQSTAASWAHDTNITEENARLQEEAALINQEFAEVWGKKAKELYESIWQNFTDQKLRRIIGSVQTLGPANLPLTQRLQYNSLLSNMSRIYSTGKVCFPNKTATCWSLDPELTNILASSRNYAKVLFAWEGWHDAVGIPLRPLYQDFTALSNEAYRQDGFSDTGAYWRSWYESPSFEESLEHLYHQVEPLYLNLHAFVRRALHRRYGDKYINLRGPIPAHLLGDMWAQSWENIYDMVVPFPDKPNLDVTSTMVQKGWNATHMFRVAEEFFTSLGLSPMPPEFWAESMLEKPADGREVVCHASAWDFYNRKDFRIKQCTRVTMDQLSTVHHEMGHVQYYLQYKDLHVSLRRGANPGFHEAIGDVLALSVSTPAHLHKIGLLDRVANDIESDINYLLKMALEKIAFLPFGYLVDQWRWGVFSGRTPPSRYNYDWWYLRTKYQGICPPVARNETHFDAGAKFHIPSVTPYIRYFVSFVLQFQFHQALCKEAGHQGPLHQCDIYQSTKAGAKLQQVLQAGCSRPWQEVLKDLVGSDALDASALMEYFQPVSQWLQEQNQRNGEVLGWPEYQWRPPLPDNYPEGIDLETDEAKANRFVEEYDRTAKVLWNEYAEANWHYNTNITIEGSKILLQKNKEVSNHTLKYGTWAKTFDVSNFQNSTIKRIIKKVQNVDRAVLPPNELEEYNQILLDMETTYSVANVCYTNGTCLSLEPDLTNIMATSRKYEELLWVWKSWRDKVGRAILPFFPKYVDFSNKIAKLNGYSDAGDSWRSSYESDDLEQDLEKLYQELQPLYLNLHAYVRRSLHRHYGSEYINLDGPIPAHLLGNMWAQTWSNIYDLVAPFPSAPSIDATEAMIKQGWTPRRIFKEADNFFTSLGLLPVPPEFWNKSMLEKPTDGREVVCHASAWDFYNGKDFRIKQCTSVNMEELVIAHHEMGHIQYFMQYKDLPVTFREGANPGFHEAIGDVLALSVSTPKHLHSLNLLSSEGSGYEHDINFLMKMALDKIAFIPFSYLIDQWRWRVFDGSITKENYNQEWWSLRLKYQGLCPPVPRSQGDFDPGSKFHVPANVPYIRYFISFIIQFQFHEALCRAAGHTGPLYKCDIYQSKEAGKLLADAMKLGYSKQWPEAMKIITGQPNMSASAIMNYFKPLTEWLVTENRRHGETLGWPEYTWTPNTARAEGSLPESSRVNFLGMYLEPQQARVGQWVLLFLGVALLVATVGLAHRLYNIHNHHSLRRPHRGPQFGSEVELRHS

Neprilysin, sequence (P08473 whole entry): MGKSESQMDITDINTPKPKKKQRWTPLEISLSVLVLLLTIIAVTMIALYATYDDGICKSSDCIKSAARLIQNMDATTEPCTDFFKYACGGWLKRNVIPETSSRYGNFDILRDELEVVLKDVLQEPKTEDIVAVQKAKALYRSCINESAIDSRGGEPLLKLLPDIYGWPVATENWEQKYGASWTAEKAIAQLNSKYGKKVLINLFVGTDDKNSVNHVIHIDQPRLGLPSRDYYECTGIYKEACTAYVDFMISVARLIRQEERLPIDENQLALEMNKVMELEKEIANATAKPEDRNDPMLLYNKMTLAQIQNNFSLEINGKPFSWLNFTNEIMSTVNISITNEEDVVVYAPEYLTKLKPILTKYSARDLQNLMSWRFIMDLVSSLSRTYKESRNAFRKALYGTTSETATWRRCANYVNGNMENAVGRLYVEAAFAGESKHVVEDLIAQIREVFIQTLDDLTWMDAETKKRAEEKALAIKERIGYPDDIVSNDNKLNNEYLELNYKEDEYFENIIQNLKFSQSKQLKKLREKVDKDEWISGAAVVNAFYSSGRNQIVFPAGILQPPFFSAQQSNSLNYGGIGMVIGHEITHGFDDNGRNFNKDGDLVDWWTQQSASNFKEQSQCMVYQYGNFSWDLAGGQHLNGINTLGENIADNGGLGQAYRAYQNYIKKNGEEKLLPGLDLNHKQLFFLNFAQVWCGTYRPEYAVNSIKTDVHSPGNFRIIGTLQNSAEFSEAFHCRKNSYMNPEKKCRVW

SMILES | Ki [1] [nM] | Ki [2] [nM]
O=C(O)CNC(=O)C(CS)(Cc1ccccc1)Cc1ccccc1 | > 100 | –
O=C(O)CNC(=O)/C(=C/c1ccccc1)CS | 408 | –
O=C(O)CNC(=O)/C(=C\c1ccccc1)CS | 4.9 | 380
O=C(O)CNC(=O)C1(CS)Cc2ccccc2C1 | 162 | –
